Test system: hPSCs
Experiment: RT-qPCR of pluripotency and germ-layer markers during differentiation with CPP-peptides (Supplementary Fig. 7b-e)
Type: cell-based, human
Settings: ectodermal differentiation
Protocol: For CPP-conjugated peptide delivery, HeLa, 293T, and PA-1 cells were incubated with CPP-conjugated peptides or CPP-FITC at 2 μM in DMEM with 10% FBS for 12 h a day before cell harvest. hPSCs were treated with CPP-conjugated peptides at 10 μM in mTeSR Plus Medium, and the peptide-containing medium was changed every day over 10 days. The ROCK inhibitor (Tocris Bioscience, Y-27632) treated-hPSCs were dissociated into single cells using Accutase (Merck, SCR005) and differentiated into ectoderm, mesoderm, and endoderm using the STEMdiff Trilineage Differentiation Kit ([…] Technologies, 05230) following the manufacturer’s protocol. Differentiated cells treated with CPP-conjugated peptides were analysed at 0, 3, and 5 days for ectoderm and endoderm, and at 0, 3, and 4 days for mesoderm. […]
cDNA was synthesised using RevertAid Reverse Transcriptase (Thermo Fisher Scientific, EP0441) with synthesised random hexamer (Macrogen) for total RNA or stem-loop primers for miRNA. For RT-qPCR reactions, the SensiFAST SYBR No-ROX kit (Meridian Bioscience) was used according to the manufacturer’s protocol. All data analysis and visualisation were conducted using R 3.6.1 [www.r-project.org] or GraphPad Prism 10. RT primers for miRNA and RT-qPCR primer sequences are provided in Supplementary Data 6. […]
FPKM of each gene was presented f r om RNA-seq analysis. b–e hPSCs wer e treated with the indicated peptide during each germ la ye r differentiation. […]
An unpaired Student’s t-test was used for a–e. Data are presented as mean values ± SEM. All statistical test us ed wer e two-s ided. T he m inim um number of independent biological replicate experim ents was a–f n = 3. T he experiments wer e conducted three tim es, each iteration producing consistent results.

“KKKWCRKKKSSADEKRYRALKRTAERELLMNA [CPP-P8, CPP conjugated to P8]” was tested, and the “transcripts downregulated in ectodermal differentiation” value was “downregulated the expression of genes closely associated with CNS development (DCX, NEUROD1, NOS2, and PAX3)” and the “transcripts upregulated in ectodermal differentiation” value was “upregulated the essential transcription factors for retinal gliogenesis and NOTCH signalling (LHX2, NOTCH1, and DLK1)”.

— article PMC10762078, “Role of UPF1-LIN28A interaction during early differentiation of pluripotent stem cells” (Nature Communications, 2024)
